Experiments:
Type in all cases: functional
Podosphaera fuliginea [1] = assay: Fungicidal activity against Podosphaera fuliginea infected cucumber plant at 7.8 ppm by foliar application
Botrytis cinerea [2] = assay: Fungicidal activity against Botryotinia fuckeliana infected cucumber plant at 500 ppm by foliar application
Podosphaera fuliginea [3] = assay: Curative fungicidal activity against Podosphaera fuliginea infected cucumber plant at 31.3 ppm by foliar application
Botrytis cinerea [4] = assay: Preventive fungicidal activity against Botryotinia fuckeliana infected cucumber plant at 7.8 ppm by foliar application
Botrytis cinerea [5] = assay: Fungicidal activity against Botryotinia fuckeliana infected cucumber plant at 7.8 ppm by foliar application
Podosphaera fuliginea [6] = assay: Preventive fungicidal activity against Podosphaera fuliginea infected cucumber plant at 7.8 ppm by foliar application
Botrytis cinerea [7] = assay: Preventive fungicidal activity against Botryotinia fuckeliana infected cucumber plant at 31.3 ppm by foliar application
Botrytis cinerea [8] = assay: Curative fungicidal activity against Botryotinia fuckeliana infected cucumber plant at 7.8 ppm by foliar application
Botrytis cinerea [9] = assay: Curative fungicidal activity against Botryotinia fuckeliana infected cucumber plant at 31.3 ppm by foliar application
Podosphaera fuliginea [10] = assay: Curative fungicidal activity against Podosphaera fuliginea infected cucumber plant at 7.8 ppm by foliar application
Podosphaera fuliginea [11] = assay: Preventive fungicidal activity against Podosphaera fuliginea infected cucumber plant at 31.3 ppm by foliar application
Podosphaera fuliginea [12] = assay: Fungicidal activity against Podosphaera fuliginea infected cucumber plant at 500 ppm by foliar application
Podosphaera fuliginea [13] = assay: Fungicidal activity against Podosphaera fuliginea infected cucumber plant at 31.3 ppm by foliar application
Botrytis cinerea [14] = assay: Fungicidal activity against Botryotinia fuckeliana infected cucumber plant at 125 ppm by foliar application
Podosphaera fuliginea [15] = assay: Fungicidal activity against Podosphaera fuliginea infected cucumber plant at 125 ppm by foliar application
Botrytis cinerea [16] = assay: Fungicidal activity against Botryotinia fuckeliana infected cucumber plant at 31.3 ppm by foliar application

Row | SMILES | Activity (Podosphaera fuliginea [1]) [%] | Activity (Botrytis cinerea [2]) [%] | Activity (Podosphaera fuliginea [12]) [%] | other results
1 | CO/N=C(/c1nnco1)c1ccccc1COc1ccc(Cl)cc1Cl | 90 | <50 | – | –
2 | CO/N=C(\c1ccccc1COc1ccc(Cl)cc1C)c1nccn1C | 90 | – | – | Activity (Podosphaera fuliginea [3]): 100%; Activity (Botrytis cinerea [4]): 60%; Activity (Botrytis cinerea [5]): <90%; Activity (Podosphaera fuliginea [6]): 100%; Activity (Botrytis cinerea [7]): 55%; Activity (Botrytis cinerea [8]): 55%; Activity (Botrytis cinerea [9]): 55%; Activity (Podosphaera fuliginea [10]): 100%; Activity (Podosphaera fuliginea [11]): 100%
3 | CO/N=C(/c1ncn[nH]1)c1ccccc1COc1cc(C)ccc1C | – | <50 | <90 | –
4 | CO/N=C(\c1ccccc1COc1cc(C)ccc1C)c1ncnn1C | – | <50 | <90 | –
5 | CO/N=C(\c1ccccc1COc1cc(C)ccc1C)c1nnnn1C | – | <50 | <90 | –
6 | CO/N=C(/c1ncno1)c1ccccc1COc1cc(C)ccc1C | – | <50 | <90 | –
7 | CO/N=C(/c1ncon1)c1ccccc1COc1cc(C)ccc1C | – | <50 | – | Activity (Podosphaera fuliginea [13]): 90%
8 | CO/N=C(/c1noc(C)n1)c1ccccc1COc1cc(C)ccc1C | – | <50 | – | Activity (Podosphaera fuliginea [13]): 90%
9 | CO/N=C(/c1nnco1)c1ccccc1COc1cc(C)ccc1C | 90 | – | – | Activity (Botrytis cinerea [14]): <90%
10 | CO/N=C(/c1nnc(C)o1)c1ccccc1COc1cc(C)ccc1C | 90 | <50 | – | –
11 | CO/N=C(\c1ccccc1COc1cc(C)ccc1C)c1snnc1C | – | <50 | – | Activity (Podosphaera fuliginea [15]): 90%
12 | CO/N=C(\c1ccccc1COc1ccccc1)c1nccn1C | – | <50 | 90 | –
13 | CO/N=C(\c1ccccc1COc1ccccc1Cl)c1nccn1C | 90 | <50 | – | –
14 | CO/N=C(\c1ccccc1COc1cccc(Cl)c1)c1nccn1C | 90 | <50 | – | –
15 | CO/N=C(\c1ccccc1COc1ccc(Cl)cc1)c1nccn1C | 90 | <50 | – | –
16 | CO/N=C(\c1ccccc1COc1ccccc1C)c1nccn1C | 90 | – | – | Activity (Botrytis cinerea [14]): <90%
17 | CO/N=C(\c1ccccc1COc1cccc(C)c1)c1nccn1C | – | <50 | – | Activity (Podosphaera fuliginea [15]): 90%
18 | CO/N=C(\c1ccccc1COc1ccc(C)cc1)c1nccn1C | 90 | <50 | – | –
19 | CO/N=C(\c1ccccc1COc1ccccc1OC)c1nccn1C | – | <50 | 90 | –
20 | CO/N=C(\c1ccccc1COc1ccc(Cl)cc1Cl)c1nccn1C | 90 | <50 | – | –
21 | CO/N=C(\c1ccccc1COc1cc(Cl)ccc1Cl)c1nccn1C | 90 | <50 | – | –

Row | SMILES | Activity (Podosphaera fuliginea [1]) [%] | Activity (Botrytis cinerea [2]) [%] | Activity (Podosphaera fuliginea [12]) [%] | other results
22 | CO/N=C(/c1nnco1)c1ccccc1COc1ccccc1 | – | <50 | – | Activity (Podosphaera fuliginea [13]): 90%
23 | CO/N=C(/c1nnco1)c1ccccc1COc1ccccc1Cl | – | <50 | – | Activity (Podosphaera fuliginea [13]): 90%
24 | CO/N=C(/c1nnco1)c1ccccc1COc1cccc(Cl)c1 | – | <50 | – | Activity (Podosphaera fuliginea [15]): 90%
25 | CO/N=C(/c1nnco1)c1ccccc1COc1ccc(Cl)cc1 | – | <50 | 90 | –
26 | CO/N=C(/c1nnco1)c1ccccc1COc1ccccc1C | 90 | – | – | Activity (Botrytis cinerea [14]): <90%
27 | CO/N=C(/c1nnco1)c1ccccc1COc1cccc(C)c1 | – | <50 | – | Activity (Podosphaera fuliginea [15]): 90%
28 | CO/N=C(/c1nnco1)c1ccccc1COc1ccccc1OC | – | <50 | 90 | –
29 | CO/N=C(/c1nnco1)c1ccccc1COc1cc(Cl)ccc1Cl | 90 | <50 | – | –
30 | CO/N=C(/c1nnco1)c1ccccc1COc1ccc(Cl)cc1C | 90 | – | – | Activity (Podosphaera fuliginea [3]): 100%; Activity (Botrytis cinerea [4]): 30%; Activity (Podosphaera fuliginea [6]): 100%; Activity (Botrytis cinerea [7]): 65%; Activity (Botrytis cinerea [16]): <90%; Activity (Botrytis cinerea [8]): 30%; Activity (Botrytis cinerea [9]): 50%; Activity (Podosphaera fuliginea [10]): 100%; Activity (Podosphaera fuliginea [11]): 100%
31 | CO/N=C(/c1ccccc1COc1ccc(Cl)cc1C)c1nccn1C | – | <50 | 90 | –
32 | CO/N=C(\c1nnco1)c1ccccc1COc1ccc(Cl)cc1C | – | <50 | – | Activity (Podosphaera fuliginea [15]): 90%
33 | CO/N=C(/c1ccon1)c1ccccc1COc1ccc(C)cc1C | – | – | – | Activity (Podosphaera fuliginea [3]): 100%; Activity (Botrytis cinerea [4]): 20%; Activity (Podosphaera fuliginea [6]): 100%; Activity (Botrytis cinerea [7]): 40%; Activity (Botrytis cinerea [8]): 30%; Activity (Botrytis cinerea [9]): 30%; Activity (Podosphaera fuliginea [10]): 100%; Activity (Podosphaera fuliginea [11]): 100%
34 | CON=C(c1ccco1)c1ccccc1COc1cc(C)ccc1C (mixture of isomers) | – | <50 | 90 | –
35 | CON=C(c1cccs1)c1ccccc1COc1cc(C)ccc1C (mixture of isomers) | – | <50 | <90 | –
36 | CON=C(c1ccccc1COc1cc(C)ccc1C)c1ccnn1C (mixture of isomers) | – | <50 | <90 | –
37 | CON=C(c1ccccc1COc1cc(C)ccc1C)c1nccn1C (mixture of isomers) | 90 | – | – | Activity (Botrytis cinerea [16]): <90%
38 | CON=C(c1cnco1)c1ccccc1COc1cc(C)ccc1C (mixture of isomers) | – | <50 | 90 | –
39 | CON=C(c1nccs1)c1ccccc1COc1cc(C)ccc1C (mixture of isomers) | – | <50 | <90 | –
40 | CON=C(c1cc(C)ns1)c1ccccc1COc1cc(C)ccc1C (mixture of isomers) | – | <50 | <90 | –
41 | CNC(=O)/C(=N/OC)c1ccccc1Oc1ccccc1 [METOMINOSTROBIN] | – | – | – | Activity (Podosphaera fuliginea [3]): 97%; Activity (Botrytis cinerea [4]): 30%; Activity (Podosphaera fuliginea [6]): 70%; Activity (Botrytis cinerea [7]): 55%; Activity (Botrytis cinerea [8]): 30%; Activity (Botrytis cinerea [9]): 40%; Activity (Podosphaera fuliginea [10]): 70%; Activity (Podosphaera fuliginea [11]): 100%

Source: ChEMBL document CHEMBL3045270, “Synthesis and Fungicidal Activities of Heterocyclic Compounds Having -Methoxyimino-2-phenoxymethylbenzyl Group” (2000)
